Experimental data published in US20200331904A1, “3-AMINO-[1,2,4]-TRIAZOLE DERIVATIVES AND THEIR USE FOR CONTROLLING UNDESIRED PLANT GROWTH” (Bayer CropScience Aktiengesellschaft, priority 2017, published 2020).

Key:
Type in all cases: in vivo
Viola tricolor [1] = assay: Pre-emergence herbicidal efficacy, VIOTR
How it was run: (§1)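 Seeds were sown in pots and covered with soil; WP or EC formulations were sprayed onto the soil surface as aqueous suspension or emulsion with 0.5% additive. Pots were kept in a greenhouse, and after about 3 weeks damage was rated visually as percent versus untreated controls (100% = plants dead, 0% = like control).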

Stellaria media = assay: Pre-emergence herbicidal efficacy, STEME
How it was run: as §1

Viola tricolor [2] = assay: Post-emergence herbicidal efficacy, VIOTR
From the text: (§2) ABUTH: Abutilon theophrasti ALOMY: Alopecurus myosuroides AMARE: Amaranthus retroflexus AVEFA: Avena fatua CYPES: Cyperus esculentus ECHCG: Echinochloa crus-galli LOLMU: Lolium multiflorum MATIN: Matricaria inodora PHBPU: Ipomoea purpurea POLCO: Polygonum convolvulus SETVI: Setaria viridis STEME: Stellaria media VERPE: Veronica persica VTOTR: Viola tricolor
(§3) C.2 Post-Emergence Herbicidal Action and Crop Plant Compatibility
(§4) Seeds of monocotyledonous and dicotyledonous weeds and crop plants are placed in sandy loam in plastic or organic planting pots, covered with soil and cultivated in a greenhouse under controlled growth conditions. 2 to 3 weeks after sowing, the test plants are treated at the one-leaf stage. The compounds of the invention, formulated in the form of wettable powders (WP) or as emulsion concentrates (EC), are then sprayed onto the green parts of the plants as aqueous suspension or emulsion with addition of 0.5% additive at a water application rate of […] (converted). After the test plants had been kept in the greenhouse under optimum growth conditions for about 3 weeks, the activity of the preparations is rated visually in comparison to untreated controls. For example, 100% activity=the plants have died, 0% activity=like control plants.

Veronica persica [3] = assay: Post-emergence herbicidal efficacy, VERPE
From the text: as §2, §3, §4

Matricaria inodora = assay: Pre-emergence herbicidal efficacy, MATIN
How it was run: as §1

Polygonum convolvulus = assay: Pre-emergence herbicidal efficacy, POLCO; details: scored visually after about 3 weeks vs untreated controls
From the text: (§5) C.1 Pre-Emergence Herbicidal Action and Crop Plant Compatibility
(§6) Seeds of monocotyledonous and dicotyledonous weed plants and crop plants are placed in plastic or organic planting pots and covered with soil. The compounds of the invention, formulated in the form of wettable powders (WP) or as emulsion concentrates (EC), are then applied onto the surface of the covering soil as aqueous suspension or emulsion with addition of 0.5% additive at a water application rate of […] (converted). After the treatment, the pots are placed in a greenhouse and kept under good growth conditions for the trial plants. After about 3 weeks, the effect of the preparations is scored visually in comparison with untreated controls as percentages. For example, 100% activity=the plants have died, 0% activity=like control plants.
as §2

Amaranthus retroflexus = assay: Pre-emergence herbicidal efficacy, AMARE; details: scored visually after about 3 weeks vs untreated controls
How it was run: as §1

Veronica persica [4] = assay: Pre-emergence herbicidal efficacy, VERPE; details: scored visually after about 3 weeks vs untreated controls
How it was run: as §1

Setaria viridis = assay: Pre-emergence herbicidal efficacy, SETVI; details: Table B1, application rate 320 g/ha, scored visually after about 3 weeks vs untreated controls
From the text: as §5, §6, §2

Echinochloa crus-galli = assay: Pre-emergence herbicidal efficacy, ECHCG; details: Table B1, application rate 320 g/ha, scored visually after about 3 weeks vs untreated controls
From the text: as §5, §6, §2

Abutilon theophrasti = assay: Pre-emergence herbicidal efficacy, ABUTH; details: Table B1, application rate 320 g/ha, scored visually after about 3 weeks vs untreated controls
From the text: as §5, §6, §2

Lolium rigidum = assay: Pre-emergence herbicidal efficacy, LOLRI; details: Table B1, application rate 320 g/ha, scored visually after about 3 weeks vs untreated controls
From the text: C.1 Pre-Emergence Herbicidal Action and Crop Plant Compatibility Seeds of monocotyledonous and dicotyledonous weed plants and crop plants are placed in plastic or organic planting pots and covered with soil. The compounds of the invention, formulated in the form of wettable powders (WP) or as emulsion concentrates (EC), are then applied onto the surface of the covering soil as aqueous suspension or emulsion with addition of 0.5% additive at a water application rate of […] (converted). After the treatment, the pots are placed in a greenhouse and kept under good growth conditions for the trial plants. After about 3 weeks, the effect of the preparations is scored visually in comparison with untreated controls as percentages. For example, 100% activity=the plants have died, 0% activity=like control plants. […] Here, for example, compound Nos. I-214 and I-196, when applied pre-emergence, have very good activity (80% to 100% herbicidal activity) against harmful plants such as Abutilon theophrasti, Amaranthus retroflexus, Echinochloa crus-galli, Lolium rigidum, Matricaria inodora, Polygonum convolvulus, Setaria viridis, Stellaria media, Veronica persica and Viola tricolor at an application rate of 0.32 kg of active substance or less per hectare. At the same time, some of the compounds according to the invention leave Gramineae crops such as barley, wheat, rye, millet/sorghum, corn, rice or sugar cane virtually undamaged when applied pre-emergence, even at high active compound dosages. In addition, some substances are also harmless to dicotyledonous crops such as soya, cotton, oilseed rape or sugar beet.

[5] = application rate 320 g/ha, scored visually after about 3 weeks
[6] = application rate 1280 g/ha, rated visually after about 3 weeks
[7] = application rate 320 g/ha, rated visually after about 3 weeks (Table B7)
[8] = Table B2, application rate 320 g/ha, scored visually after about 3 weeks vs untreated controls
[9] = Table B2, application rate 320 g/ha
[10] = Table B1, application rate 320 g/ha, scored visually after about 3 weeks vs untreated controls
[11] = Table B1, application rate 320 g/ha

Structure (SMILES) | Herbicidal efficacy against VIOTR (Viola tricolor [1]; [5]) [%] | Herbicidal efficacy against STEME (Stellaria media; [5]) [%] | Herbicidal efficacy against VIOTR (Viola tricolor [2]; [6]) [%] | Herbicidal efficacy against VERPE (Veronica persica [3]; [6]) [%] | Herbicidal efficacy against MATIN (Matricaria inodora; [5]) [%] | Herbicidal efficacy against VIOTR (Viola tricolor [2]; [7]) [%] | Herbicidal efficacy against VERPE (Veronica persica [3]; [7]) [%] | Herbicidal efficacy against VIOTR (Viola tricolor [1]; [10]) [%] | Herbicidal efficacy against STEME (Stellaria media; [10]) [%] | Herbicidal efficacy against SETVI (Setaria viridis) [%] | Herbicidal efficacy against ECHCG (Echinochloa crus-galli) [%] | Herbicidal efficacy against POLCO (Polygonum convolvulus; [11]) [%] | Herbicidal efficacy against AMARE (Amaranthus retroflexus; [11]) [%] | Herbicidal efficacy against ABUTH (Abutilon theophrasti) [%] | Herbicidal efficacy against MATIN (Matricaria inodora; [10]) [%] | Herbicidal efficacy against LOLRI (Lolium rigidum) [%] | Herbicidal efficacy against VERPE (Veronica persica [4]; [11]) [%] | other results
CC(=O)N1CCn2nc(NC3CCOc4ccccc43)nc2C1 (stereo not shown) [Example I-068] | 100 | 100 | 80 | 90 | 100 |  |  |  |  |  |  |  |  |  |  |  |  | 
O=S(=O)(C1CC1)N1CCn2nc(NC3CCCc4ccccc43)nc2C1 (stereo not shown) [Example I-087] | 100 | 100 | 80 | 90 | 100 | 80 | 80 |  |  |  |  |  |  |  |  |  |  | 
Cc1ccc2c(c1)C(Nc1nc3n(n1)CCN(C(=O)c1cccc(Cl)c1)C3)C(C)C2 (stereo not shown) [Example I-170] | 100 | 100 |  |  | 90 | 80 | 90 |  |  |  |  |  |  |  |  |  |  | 
Cc1ccc2c(c1)[C@H](Nc1nc3n(n1)CCN(S(=O)(=O)C1CC1)C3)[C@@H](C)C2 [Example I-192] |  |  |  |  |  | 80 | 80 |  |  |  |  |  |  |  |  |  |  | Herbicidal efficacy against VIOTR (Viola tricolor [1]; [8]): 100%; Herbicidal efficacy against STEME (Stellaria media; [8]): 100%; Herbicidal efficacy against POLCO (Polygonum convolvulus; [9]): 100%; Herbicidal efficacy against AMARE (Amaranthus retroflexus; [9]): 100%; Herbicidal efficacy against MATIN (Matricaria inodora; [8]): 100%; Herbicidal efficacy against VERPE (Veronica persica [4]; [9]): 100%
Cc1ccc2c(c1)[C@H](Nc1nc3n(n1)CCN(S(=O)(=O)Cc1ccccc1)C3)[C@@H](C)C2 [Example I-194] | 100 | 100 |  |  | 90 | 80 | 100 |  |  |  |  |  |  |  |  |  |  | 
Cc1ccc2c(c1)[C@H](Nc1nc3n(n1)CCN(S(=O)(=O)c1ccccc1Cl)C3)[C@@H](C)C2 [Example I-195] | 100 | 100 | 90 | 90 | 90 | 80 | 80 |  |  |  |  |  |  |  |  |  |  | 
Cc1ccc2c(c1)[C@H](Nc1nc3n(n1)CCN(S(=O)(=O)Cc1ccccc1)C3)CCC2 [Example I-202] | 100 | 100 |  |  | 90 | 80 | 80 |  |  |  |  |  |  |  |  |  |  | 
O=C1CCn2nc(NC3CCc4ccccc43)nc2N1CC1CC1 (stereo not shown) [Example I-219] | 100 | 100 | 80 | 90 | 100 |  |  |  |  |  |  |  |  |  |  |  |  | 
[O-][S+]1CCCCn2nc(NC3CCOc4ccccc43)nc21 (stereo not shown) [Example I-247] | 100 | 100 | 80 | 80 | 100 |  |  |  |  |  |  |  |  |  |  |  |  | 
O=C1CCn2nc(NC3CCOc4ccccc43)nc2N1Cc1cccc(C(F)(F)F)c1 (stereo not shown) [Example I-273] | 100 | 100 | 90 | 100 | 80 |  |  |  |  |  |  |  |  |  |  |  |  | 
Cc1ccc2c(c1)C(Nc1nc3n(n1)CCCN3S(=O)(=O)C1CC1)CCC2 (stereo not shown) [Example I-327] | 100 | 100 |  |  | 100 | 80 | 90 |  |  |  |  |  |  |  |  |  |  | Herbicidal efficacy against VIOTR (Viola tricolor [1]; [8]): 100%; Herbicidal efficacy against STEME (Stellaria media; [8]): 100%; Herbicidal efficacy against AMARE (Amaranthus retroflexus; [9]): 100%; Herbicidal efficacy against MATIN (Matricaria inodora; [8]): 100%; Herbicidal efficacy against VERPE (Veronica persica [4]; [9]): 100%
Cc1ccc2c(c1)[C@H](Nc1nc3n(n1)CCCS3)[C@@H](C)C2 [Example I-348] |  |  |  |  |  |  |  | 100 | 100 | 100 | 100 | 100 | 100 | 100 | 100 | 80 | 100 | 
Cc1ccc2c(c1)[C@H](Nc1nc3n(n1)CCCCS3(=O)=O)CC2 [Example I-365] |  |  |  |  |  |  |  | 100 | 100 | 100 | 90 | 100 | 100 | 100 | 100 | 100 | 100 | 
Cc1ccc2c(c1)[C@H](Nc1nc3n(n1)CCCC[S+]3[O-])CC2 (stereo partly shown) [Example I-370] |  |  |  |  |  |  |  | 100 | 100 | 100 | 100 | 100 | 100 | 100 | 100 | 100 | 100 | 
Cc1ccc2c(c1)C(Nc1nc3n(n1)CCCC[S+]3[O-])C(C)C2 (stereo not shown) [Example I-371] |  |  |  |  |  |  |  | 100 | 100 | 100 | 100 | 100 | 100 | 100 | 100 | 100 | 100 | 
Cc1ccc2c(c1)[C@H](Nc1nc3n(n1)CCCS3)CCO2 [Example I-376] |  |  |  |  |  |  |  | 100 | 100 | 100 | 100 | 100 | 100 | 100 | 100 | 100 | 100 | 
Cc1ccc2c(c1)[C@H](Nc1nc3n(n1)CCCC[S+]3[O-])CCO2 (stereo partly shown) [Example I-380] |  |  |  |  |  |  |  | 100 | 100 | 100 | 100 | 100 | 100 | 100 | 100 | 80 | 100 | 
